Experimental data published in US20200172483A1, “HETEROCYCLIC SMALL MOLECULE MODULATORS OF HUMAN STING” (Curadev Pharma Limited, priority 2017, published 2020).
pEC50: −log10 of the molar value.

What was measured:
NF-κB pathway = assay: Reporter gene expression assay for NFκB axis in THP1-Dual cells (secreted SEAP); type: cell-based, human; settings: Homo sapiens, THP1-Dual, 20 h, 20 hr stimulation, QUANTI-Blue SEAP, EC50 range, read-out: THP-NFKB activity
Procedure, shortened: (§1)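 THP1-Dual cells (THP-1 monocytes with inducible NF-κB-SEAP and IRF-Lucia reporters; 5×10^5 cells) were stimulated with compounds for 20 hr. Secreted SEAP (QUANTI-Blue) and Lucia luciferase (QUANTI-Luc) were then measured in the supernatant. EC50 values are reported as ranges.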

IRF pathway = assay: Reporter gene expression assay for IRF axis in THP1-Dual cells (secreted Lucia luciferase); type: cell-based, human; settings: Homo sapiens, THP1-Dual, 20 h, 20 hr stimulation, QUANTI-Luc, EC50 range, read-out: THP-IRF activity
Procedure, shortened: as §1

WT/R232 STING protein = target: T1, WT/R232 STING protein (Homo sapiens, UniProt Q86WV6, H232R); assay: Luciferase reporter assay in HEK293T-hSTING-Luciferase cells (R232); type: cell-based; settings: 20 hr stimulation, EC50 range
T1 construct: host or cells: HEK293T
T1 sequence (Q86WV6 whole entry H232R): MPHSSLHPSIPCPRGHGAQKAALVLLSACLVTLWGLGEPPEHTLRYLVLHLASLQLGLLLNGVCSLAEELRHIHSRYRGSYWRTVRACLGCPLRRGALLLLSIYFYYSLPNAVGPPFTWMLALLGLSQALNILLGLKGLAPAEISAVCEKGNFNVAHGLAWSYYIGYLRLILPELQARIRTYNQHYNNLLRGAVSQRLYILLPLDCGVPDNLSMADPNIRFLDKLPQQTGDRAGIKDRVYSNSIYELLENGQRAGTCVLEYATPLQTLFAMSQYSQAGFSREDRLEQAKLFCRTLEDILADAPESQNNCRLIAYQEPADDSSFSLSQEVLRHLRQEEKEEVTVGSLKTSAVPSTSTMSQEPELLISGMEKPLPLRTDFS
Procedure, shortened: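 Readout is fold-induction over baseline of secreted luciferase, measured by luminescence after 20 hr compound stimulation. Cells: clonally selected HEK293T stably carrying hSTING (R232) and a luciferase reporter under five tandem ISREs fused to an ISG54 minimal promoter.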

hSTING (H232) = target: T2, hSTING (H232) (Homo sapiens, UniProt Q86WV6); assay: Luciferase reporter assay in HEK293T-hSTING-Luciferase cells (H232/REF polymorph); type: cell-based; settings: EC50 range
T2 construct: host or cells: HEK293T
T2 sequence (Q86WV6 whole entry): as the sequence (Q86WV6 whole entry H232R) above, with R232H counted along it
Procedure, shortened: (§2)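 Clonal HEK293T lines stably expressing the hSTING variant (H232 or HAQ) plus an ISRE/ISG54-driven secreted luciferase reporter were stimulated with compounds for 20 hr. Supernatant luciferase measured by luminescence (Quanti-Luc).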

hSTING (HAQ) = target: T3, hSTING (HAQ) (Homo sapiens, UniProt Q86WV6, G230A/H232R/R293Q/R71H); assay: Luciferase reporter assay in HEK293T-hSTING-Luciferase cells (HAQ polymorph); type: cell-based; settings: EC50 range
T3 construct: host or cells: HEK293T
T3 sequence (Q86WV6 whole entry R71H/G230A/H232R/R293Q): as the sequence (Q86WV6 whole entry H232R) above, with R71H, G230A, R293Q counted along it
Procedure, shortened: as §2

pEC50 (NF-κB pathway)	pEC50 (IRF pathway)	pEC50 (WT/R232 STING protein)	pEC50 (hSTING (H232))	pEC50 (hSTING (HAQ))	SMILES
5.00 to 6.00	5.00 to 6.00	≥ 6.00	≥ 6.00	≥ 6.00	CC1(C)C(=O)N(Cc2c(F)cccc2Cl)c2cc(C(=O)NCc3c(F)cc(F)cc3F)ccc21 [Example 2, 1-(2-chloro-6-fluorobenzyl)-3,3-dimethyl-2-oxo-N-(2,4,6-trifluorobenzyl)indoline-6-carboxamide]
5.00 to 6.00	5.00 to 6.00	≥ 6.00	≥ 6.00	≥ 6.00	Cc1cccc(F)c1CN1C(=O)C(C)(C)c2ccc(C(=O)NCc3c(F)cc(F)cc3F)cc21 [Example 103, 1-(2-fluoro-6-methylbenzyl)-3,3-dimethyl-2-oxo-N-(2,4,6-trifluorobenzyl)indoline-6-carboxamide]
5.00 to 6.00	< 5.00	≥ 6.00	5.00 to 6.00	5.00 to 6.00	CC1(C)C(=O)N(Cc2c(F)cccc2Cl)c2cc(C(=O)NCc3ccc(F)cc3)ccc21 [Example 25, 1-(2-chloro-6-fluorobenzyl)-N-(4-fluorobenzyl)-3,3-dimethyl-2-oxoindoline-6-carboxamide]
< 5.00	< 5.00	≥ 6.00	5.00 to 6.00	5.00 to 6.00	Cc1ccc(CNC(=O)c2ccc3c(c2)N(Cc2c(F)cccc2Cl)C(=O)C3(C)C)o1 [Example 13, 1-(2-chloro-6-fluorobenzyl)-3,3-dimethyl-N-((5-methylfuran-2-yl)methyl)-2-oxoindoline-6-carboxamide]
5.00 to 6.00	5.00 to 6.00	5.00 to 6.00	5.00 to 6.00	5.00 to 6.00	Cc1cc(CN2C(=O)C(C)(C)c3ccc(C(=O)NCc4c(F)cc(F)cc4F)cc32)nn1C [Example 81, 1-((1,5-dimethyl-1H-pyrazol-3-yl)methyl)-3,3-dimethyl-2-oxo-N-(2,4,6-trifluorobenzyl)indoline-6-carboxamide]
